Experimental data as given in US20150197497A1, “SELECTIVE INHIBITORS OF HISTONE DEACETYLASE ISOFORM 6 AND METHODS THEREOF” (DANA-FARBER CANCER INSTITUTE, INC., priority 2011, published 2015).

Key:
HDAC1 = target: T1, HDAC1 (Homo sapiens, UniProt Q13547); test: In vitro HDAC enzyme inhibition assay, HDAC1; type: biochemical; settings: for HDAC1/HDAC6 in vitro selectivity: ratio of IC50 for HDAC1 relative to that of HDAC6; for IC50: recombinant full-length HDAC1, substrate MAZ1600 21 μM
T1 construct: Recombinant, full-length HDAC protein (BPS Biosciences) was incubated with fluorophore conjugated substrate; purchased BPS Biosciences
T1 sequence (Q13547 whole entry): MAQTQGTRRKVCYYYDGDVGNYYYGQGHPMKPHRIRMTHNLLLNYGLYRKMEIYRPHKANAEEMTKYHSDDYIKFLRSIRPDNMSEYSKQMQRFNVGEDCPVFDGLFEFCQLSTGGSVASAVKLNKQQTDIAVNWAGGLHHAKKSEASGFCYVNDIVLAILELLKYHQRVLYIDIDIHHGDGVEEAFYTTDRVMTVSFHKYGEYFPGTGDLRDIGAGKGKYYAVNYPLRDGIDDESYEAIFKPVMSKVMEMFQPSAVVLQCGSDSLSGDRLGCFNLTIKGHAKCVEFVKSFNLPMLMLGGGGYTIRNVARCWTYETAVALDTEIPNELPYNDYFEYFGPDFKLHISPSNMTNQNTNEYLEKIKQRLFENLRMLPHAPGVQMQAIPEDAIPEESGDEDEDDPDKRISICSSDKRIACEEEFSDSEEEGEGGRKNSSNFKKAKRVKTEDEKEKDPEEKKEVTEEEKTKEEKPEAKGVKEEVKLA
Method: (§1) In vitro Histone Deacetylase enzyme assays were performed using Class I (isoforms: HDAC1, HDAC2, HDAC3 and HDAC8), class IIa (isoforms: HDAC4, HDAC5, HDAC7 and HDAC9) and class IIb (isoform HDAC6).
(§2) HDAC activities were determined in vitro with an optimized homogenous assay performed in a 384-well plate. Recombinant, full-length HDAC protein (BPS Biosciences) was incubated with fluorophore conjugated substrate, MAZ1600 and MAZ1675, at Km=[S]. […] Reactions were performed in assay buffer (50 mM HEPES, 100 mM KCl, 0.001% Tween-20, 0.05% BSA, 200 μM tris(2-carboxyethyl)phosphine (TCEP), pH 7.4) and followed for fluorogenic release of 7-amino-4-methylcoumarin from substrate upon deacetylase and trypsin enzymatic activity. Fluorescence measurements were obtained every five minutes using a multilabel plate reader and plate-stacker (Envision; Perkin-Elmer). Each plate was analyzed by plate repeat, and the first derivative within the linear range was imported into analytical software (Spotfire DecisionSite and GraphPad Prism). Replicate experimental data from incubations with inhibitor were normalized to controls.

HDAC7 = target: T2, HDAC7 (Homo sapiens, UniProt Q8WUI4); test: In vitro HDAC enzyme inhibition assay, HDAC7; type: biochemical; settings: for HDAC7/HDAC6 in vitro selectivity: ratio of IC50 for HDAC7 relative to that of HDAC6; for IC50: recombinant full-length HDAC7, substrate MAZ1675 22 μM
T2 construct: Recombinant, full-length HDAC protein (BPS Biosciences) was incubated with fluorophore conjugated substrate; purchased BPS Biosciences
T2 sequence (Q8WUI4 1-952): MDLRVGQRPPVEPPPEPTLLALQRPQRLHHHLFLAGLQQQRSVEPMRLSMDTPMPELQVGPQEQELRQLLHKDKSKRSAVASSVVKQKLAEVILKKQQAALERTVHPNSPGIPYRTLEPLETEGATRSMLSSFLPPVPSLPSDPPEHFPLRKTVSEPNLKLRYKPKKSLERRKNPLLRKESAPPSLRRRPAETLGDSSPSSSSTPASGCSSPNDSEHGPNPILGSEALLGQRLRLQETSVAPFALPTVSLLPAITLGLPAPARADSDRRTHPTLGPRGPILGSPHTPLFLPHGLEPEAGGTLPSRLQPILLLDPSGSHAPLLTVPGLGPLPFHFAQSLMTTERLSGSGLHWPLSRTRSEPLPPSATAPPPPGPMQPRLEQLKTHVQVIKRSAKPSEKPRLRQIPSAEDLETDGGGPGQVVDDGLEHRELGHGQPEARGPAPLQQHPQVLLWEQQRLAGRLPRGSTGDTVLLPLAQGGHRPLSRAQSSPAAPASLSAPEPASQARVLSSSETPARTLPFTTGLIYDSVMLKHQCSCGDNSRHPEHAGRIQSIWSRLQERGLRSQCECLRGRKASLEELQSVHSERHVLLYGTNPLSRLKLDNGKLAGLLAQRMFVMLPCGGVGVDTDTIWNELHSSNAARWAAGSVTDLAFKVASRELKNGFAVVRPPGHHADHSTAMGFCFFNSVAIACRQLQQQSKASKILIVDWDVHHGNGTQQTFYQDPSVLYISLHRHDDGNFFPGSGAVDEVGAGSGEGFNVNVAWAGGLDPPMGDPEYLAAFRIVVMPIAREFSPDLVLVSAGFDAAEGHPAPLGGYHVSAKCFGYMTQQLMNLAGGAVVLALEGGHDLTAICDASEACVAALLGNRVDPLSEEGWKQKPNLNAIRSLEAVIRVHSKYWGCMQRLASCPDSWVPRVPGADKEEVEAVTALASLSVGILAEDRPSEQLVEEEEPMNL
Method: as §1, §2

acetylated tubulin = test: High-content image analysis of induction of acetylated tubulin in A549 cells; settings: for EC50: Homo sapiens, A549, 8 h, read-out: EC50 for half-maximal induction of acetylated tubulin (AcTubulin); for AcHistone/AcTubulin in cell selectivity toward HDAC6: ratio of EC50 acetylated histone to EC50 acetylated tubulin, A549 cells
Method: Cells were treated with each test HDACi compound with an automated pin transfer instrument (Janus, Perkin Elmer) and incubated for 8 hours. […] Fixation solution was aspirated and 90 μL of washing solution (0.1% Triton X-100 in PBS) was added prior to 10 minute incubation at 4° C. Washing solution was aspirated and cells were incubated at 4° C. for about 1 hour in blocking solution (0.1% Triton X-100+2% BSA in PBS). Washing solution was aspirated, and cells were incubated for about 1 hour at 4° C. in primary antibody for acetylated-tubulin (Sigma T7451) and acetylated-histone (Cell Signaling #9441L) at a 1:1000 dilution in blocking solution. Primary antibody solution was aspirated, and cells were washed three times in 90 μL of washing solution. […] Secondary antibody and nuclear staining solution was aspirated and cells were washed three times in 90 μL of washing solution. After the third wash, 50 μL of PBS was added to each well. Image acquisition was done on a high content imaging microscope (ImageXpress Micro, Molecular Devices), and image analysis (MetaXpress, Molecular Devices) was performed to obtain average acetylated-tubulin and acetylated-histone signal per cell based on treatment. Replicate experimental data from incubations with inhibitor were normalized to DMSO controls.

| SMILES | HDAC1/HDAC6 in vitro selectivity (HDAC1) | IC50 (HDAC1) | HDAC7/HDAC6 in vitro selectivity (HDAC7) | IC50 (HDAC7) | EC50 (acetylated tubulin) | AcHistone/AcTubulin in cell selectivity toward HDAC6 (acetylated tubulin) |
| --- | --- | --- | --- | --- | --- | --- |
| COc1ccc2c(c1)[nH]c(=O)n2Cc1ccc(C(=O)NO)cc1 [B7, N-hydroxy-4-((5-methoxy-2-oxo-2,3-dihydro-1H-benzo[d]imidazol-1-yl)methyl)benzamide] | 1224 | 31.5 nM | 15934 | 410 nM | 154 nM | 10.013 |
| O=C(NO)c1ccc(Cn2nnc3ccccc32)cc1 [C1, 4-((1H-benzo[d][1,2,3]triazol-1-yl)methyl)-N-hydroxybenzamide] | 3996 | 63.9 nM | 9286 | 148 nM | 2700 nM | 2.641 |
| O=C(NO)c1ccc(Cn2nnc3cc(F)ccc32)cc1 [C3, 4-((5-fluoro-1H-benzo[d][1,2,3]triazol-1-yl)methyl)-N-hydroxybenzamide] | 8300 | 218 nM | 21126 | 555 nM | 144 nM | 10.4517 |

Now from value to compound, other results behind:

| HDAC1/HDAC6 in vitro selectivity (HDAC1) | IC50 (HDAC1) | HDAC7/HDAC6 in vitro selectivity (HDAC7) | IC50 (HDAC7) | EC50 (acetylated tubulin) | SMILES | AcHistone/AcTubulin in cell selectivity toward HDAC6 (acetylated tubulin) |
| --- | --- | --- | --- | --- | --- | --- |
| 1712 | 94.5 nM | 7608 | 420 nM | 1920 nM | O=C(NO)c1ccc(Cn2nnc3cc(Cl)ccc32)cc1 [C4, 4-((5-chloro-1H-benzo[d][1,2,3]triazol-1-yl)methyl)-N-hydroxybenzamide] | 3.137 |
| 2113 | 54.5 nM | 11817 | 305 nM | 150 nM | O=C(NO)c1ccc(Cn2nnc3cc(Br)ccc32)cc1 [C5, 4-((5-bromo-1H-benzo[d][1,2,3]triazol-1-yl)methyl)-N-hydroxybenzamide] | 15.37 |
